For one experiment, the target named is T1, human α1A-adrenoceptors (Homo sapiens, UniProt P35348).
T1 sequence (P35348 1-466): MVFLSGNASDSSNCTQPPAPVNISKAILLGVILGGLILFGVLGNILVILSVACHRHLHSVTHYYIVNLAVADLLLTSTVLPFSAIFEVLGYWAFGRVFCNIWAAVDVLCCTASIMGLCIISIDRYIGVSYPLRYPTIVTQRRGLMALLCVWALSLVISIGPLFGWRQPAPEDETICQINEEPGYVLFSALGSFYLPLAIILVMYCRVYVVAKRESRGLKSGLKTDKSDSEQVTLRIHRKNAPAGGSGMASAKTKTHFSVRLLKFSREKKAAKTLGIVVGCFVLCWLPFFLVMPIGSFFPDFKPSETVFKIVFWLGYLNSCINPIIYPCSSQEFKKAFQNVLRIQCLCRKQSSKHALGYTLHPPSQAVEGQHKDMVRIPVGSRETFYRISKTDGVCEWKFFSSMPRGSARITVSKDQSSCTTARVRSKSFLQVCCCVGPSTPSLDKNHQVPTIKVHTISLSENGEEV
Put plainly: Radioligand-receptor binding assay, human recombinant α1A-adrenoceptor, [3H]prazosin. As to conditions: human recombinant receptors in CHO cells, mean ± SEM; read-out: pKi α1A (converted). How it is done: (§1) Chinese hamster ovary (CHO) cells which had been stably transfected with human α1A, α1B, or α1D-adrenoceptors (Keffel et al., Biochem. Biophys. Res. Commun., 2000, 272, 906–11) were cultured in an atmosphere of 5% CO2/95% air at 37° C. in F-12 HAM medium supplemented with 10% heat-inactivated fetal calf serum, 1 mM glutamine, 100 U/ml penicillin and 0.1 mg/ml streptomycin. Selection pressure was maintained by regular addition of geneticin to the culture medium.
(§2) Competitive radioligand binding to the cloned subtypes of […] was performed using [^3H]prazosin as the radioligand as described by Michel et al, Br. J. Pharmacol., 98, 883–889 (1989) with minor modifications. Experiments were performed in binding buffer consisting of 50 mM Tris, 10 mM MgCl2 and 0.5 mM EDTA at pH 7.5 in a total assay volume of 1000 μl. The protein content typically was 40–60 μg/assay. The mixtures were incubated at 25° C. for 45 minutes. Incubations were terminated by rapid vacuum filtration over GF/C filters followed by two washes of the filters each with 10 ml ice-cold incubation buffer. Non-specific binding was defined as binding in the presence of 10 μM phentolamine.
(§3) The IC50 & Kd were estimated by using the non-linear curve fitting program using G Pad Prism software. The value of inhibition constant Ki was calculated from competitive binding studies by using Cheng & Prusoff equation [Cheng & Prusoff, Biochem. Pharmacol., 22, 3099–3108 (1973)], Ki=IC50/(1+L/Kd), where L is the concentration of [^3H] prazosin used in the particular experiment. Kd of [^3H] prazosin was determined from saturation binding studies. The values were tabulated as mean±SEM of pKi values, where pKi is the −log of Ki value.

A further experiment deals with T2, human α1D-adrenoceptors (Homo sapiens, UniProt P25100).
T2 sequence (P25100 1-572): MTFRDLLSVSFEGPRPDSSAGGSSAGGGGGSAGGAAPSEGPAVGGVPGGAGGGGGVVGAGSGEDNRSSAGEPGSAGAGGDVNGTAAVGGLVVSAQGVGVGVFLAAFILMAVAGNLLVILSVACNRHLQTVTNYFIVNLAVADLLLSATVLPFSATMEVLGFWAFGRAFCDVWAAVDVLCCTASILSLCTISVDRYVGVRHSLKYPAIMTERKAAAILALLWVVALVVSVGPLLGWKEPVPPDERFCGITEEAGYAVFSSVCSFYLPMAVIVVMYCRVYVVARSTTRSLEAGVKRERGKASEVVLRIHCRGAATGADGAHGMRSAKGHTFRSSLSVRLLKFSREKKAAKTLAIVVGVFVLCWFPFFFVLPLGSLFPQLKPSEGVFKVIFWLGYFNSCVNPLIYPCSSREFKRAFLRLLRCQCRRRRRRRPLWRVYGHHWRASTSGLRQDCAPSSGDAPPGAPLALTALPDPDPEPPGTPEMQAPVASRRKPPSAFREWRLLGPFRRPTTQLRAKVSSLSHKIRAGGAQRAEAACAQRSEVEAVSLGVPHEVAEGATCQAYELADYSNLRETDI
Briefly: Radioligand-receptor binding assay, human recombinant α1D-adrenoceptor, [3H]prazosin. The protocol:
as §1, §2, §3

Another experiment has as its target T3, human α1B-adrenoceptors (Homo sapiens, UniProt P35368).
T3 sequence (P35368 1-520): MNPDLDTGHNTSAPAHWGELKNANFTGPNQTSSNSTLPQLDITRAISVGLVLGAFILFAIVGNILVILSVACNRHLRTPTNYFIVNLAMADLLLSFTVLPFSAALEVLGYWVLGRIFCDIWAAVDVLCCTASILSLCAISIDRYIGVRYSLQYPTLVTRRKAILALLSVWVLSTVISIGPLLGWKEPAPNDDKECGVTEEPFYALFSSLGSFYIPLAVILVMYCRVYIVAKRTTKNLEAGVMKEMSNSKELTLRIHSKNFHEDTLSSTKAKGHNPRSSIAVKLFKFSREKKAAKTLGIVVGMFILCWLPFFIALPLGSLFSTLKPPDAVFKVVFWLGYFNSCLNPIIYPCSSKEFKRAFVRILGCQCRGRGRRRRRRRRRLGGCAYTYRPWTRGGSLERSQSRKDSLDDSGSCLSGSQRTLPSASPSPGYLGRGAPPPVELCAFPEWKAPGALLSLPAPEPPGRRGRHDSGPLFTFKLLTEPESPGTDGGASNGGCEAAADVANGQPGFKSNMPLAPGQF
Put plainly: Radioligand-receptor binding assay, human recombinant α1B-adrenoceptor, [3H]prazosin. The protocol:
as §1, §2, §3

Each structure is given as a SMILES string. pKi: −log10 of the molar value.

Take `CCOc1ccccc1OCCN[C@@H](C)Cc1ccc(O)c(S(N)(=O)=O)c1` [(S)-isomer]: the Ki at human α1A-adrenoceptors was 2.24 nM. Moreover, the pKi (usually −log10 of the Ki, conventionally taken in molar units) at human α1D-adrenoceptors is 8.10; at human α1B-adrenoceptors, 7.66.

In the case of `CCOc1ccccc1OCCNC(C)Cc1ccc(O)c(S(N)(=O)=O)c1` (racemic) [Racemate], the Ki at human α1A-adrenoceptors is 0.0832 nM. In addition, the values for the negative logarithm of the Ki (pKi) at human α1D-adrenoceptors and on human α1B-adrenoceptors were 9.67 and 8.96, respectively.
